Measured values as given in patent US9733237B2, “Methods for identifying candidates for the treatment of neurodegenerative diseases” (The Trustees of Columbia University in the City of New York, priority 2012, dated 2017).
Where two headings read alike, the source gives them in different places.

How the values were obtained:
[1] = system: SOD1^G93A (ALS) and SOD1^WT mouse embryonic stem cell-derived motor neurons; experiment: Two-color screen for agents preferentially toxic to ALS motor neurons (mixed WT/G93A ES-MN culture); assay type: cell-based; details: for Preferential activity on ALS motor neurons: independent pair of WT and G93A lines
Protocol: GFP+ and RFP+ motor neurons were seeded in 96-well plates at equal proportions and imaged using a whole-well imaging platform (Plate Runner HD, Trophos, Marseilles, France). Live cells were scored with an automated image software (Metamorph, Molecular Devices, LLC, Sunnyvale, Calif.) using a neurite outgrowth criterion of five times the cell body diameter. Compounds from a small molecule library (Trophos) were loaded using automated liquid handling, and motor neuron survival was scored at 48 and 72 hours after exposure to stressors.
A survival ratio was calculated by dividing surviving % red cells with green cells for each well (lower left panel). Compounds eliciting ratios greater than 1.6 were considered hits (highlighted in lower left panel).
Multiple ES cell lines from SOD1^G93A mice that had been bred to a reporter strain expressing GFP under the motor neuron-specific Hb9 promoter were generated. ES cells from mice overexpressing wildtype human SOD1 (SOD1^WT) bred to mice expressing a new Hb9::RFP reporter (K. C. Kanning, unpublished) were used as controls. When differentiated in vitro using retinoic acid and an agonist of the sonic hedgehog pathway, these ES cells therefore generated green ALS motor neurons and red controls (FIG. 1A). By mixing these in equal numbers in culture, the response of ALS and control motor neurons to otherwise identical culture conditions could be quantified. This approach would reduce noise due to differences in individual culture wells, seeding density, position in incubator, etc., and that the ratio between numbers of WT and G93A cells would be a sensitive measure of selective vulnerability.
Using this assay miniaturized to a 96-well format, it was confirmed that after 3 days in either the presence or absence of a cocktail of neurotrophic factors, there was only a subtle decrease in ALS motor neuron survival relative to controls. An open-ended screen of the Tocriscreen Mini and Custom collection library of bioactive compounds was therefore performed to identify agents of known mechanism that could selectively induce death of ALS motor neurons. A total of 1,275 compounds were screened initially at a single concentration (10 μM), and those that were deemed too toxic were retested at 1 μM. […] Preferential activity on ALS motor neurons was subsequently confirmed for 4 of the hits using an independent pair of WT and G93A lines (FIG. 1B). The active compounds were: (a) capsaicin, an agonist of the […] receptor that is predominantly expressed on sensory neurons, (b) CPA (cyclopiazonic acid), which is an inhibitor of SERCA (sarco(endo)-plasmic reticulum Ca^++-ATPase) pumps, which sequester Ca^++ into the ER from the cytoplasm in an ATP-dependent manner (FIG. 2A), (c) DH97, a potent MT2 melatonin receptor antagonist, and (d) 2,3-DCPE, a compound that selectively induces apoptosis and downregulates Bcl-xL expression in human cancer vs. normal cells in vitro. The inventors focused on CPA because it induced the most robust change in the WT/G93A ratio (>3 in both combinations of ES lines) and because of the relevance of its mechanism of action to the alterations in Ca^++ handling that are characteristic of ALS motor neurons.
We first asked whether the actions of CPA were direct on motor neurons, or mediated by other cell types present in the mixed culture used for screening. […] Thus, degeneration induced by SERCA inhibition robustly differentiates between SOD1^G93A and SOD1^WT motor neurons. Neither thapsigargin nor CPA has gross effects on neuronal function. […] This provides further support for the notion that the selective effect of SERCA inhibitors on ALS motor neurons is a function of the disease.
A library of small molecule compounds (Tocriscreen Mini & Custom collection, 1275 compounds, or other collections of novel compounds) will be added at a concentration of 10 μM using automated liquid handling. The compounds will be added to the wells following the 20 hour imaging time point. […]

ES-MNs (G93A and WT) = experiment: Fura-2 calcium imaging of Ca++ release from ER stores; assay type: cell-based, mouse; details: 10 μM CPA, 20 minutes
Description: To explore potential mechanisms underlying the ALS-selective toxicity of CPA, calcium imaging in ES-MNs loaded with the calcium indicator dye Fura-2 was used. In preliminary experiments, rise and fall constants following a 5-second pulse of kainic acid were monitored, and no significant difference between the G93A and WT lines were found (FIG. 2B). […] It was hypothesized that CPA might selectively induce an imbalance in Ca^++ handling. To monitor release of Ca^++ from endoplasmic reticulum (ER) stores, ES-MNs of each genotype were incubated for 20 minutes with 10 μM CPA. An initial rapid increase of Fura-2 signal was followed by a slow recovery, as Ca^++ was sequestered by other routes, out of which mitochondria may be the main compensatory compartment.

[2] = system: neurons of the pre-Botzinger complex; details: cited from earlier work
SOD1^G93A mice = details: in vivo; cited from earlier work

OCCNCCCOc1cccc(Cl)c1Cl [2,3-DCPE]
Preferential activity on ALS motor neurons [1]: confirmed

CC(=O)C1=C(O)[C@@H]2[C@H]3c4c[nH]c5cccc(c45)C[C@H]3C(C)(C)N2C1=O [CPA, cyclopiazonic acid]
reduction in WT motor neurons numbers ([1]; 7.5 μM, after 48 hours): 40-50% | survival ratio (red WT cells/green mutant cells) ([1]; 7.5 μM, after 48 hours): 1.6-1.75 | change in the WT/G93A ratio ([1]; both combinations of ES lines): > 3 | G93A cells with greater initial Ca++ release (ES-MNs (G93A and WT)): about 40% | effect on respiratory rhythm ([2]; applied to neurons of the pre-Botzinger complex): do not affect respiratory rhythm

CCCCC(=O)NCCc1c(Cc2ccccc2)[nH]c2ccccc12 [DH97]
Preferential activity on ALS motor neurons [1]: confirmed

O=C(/C=C/c1ccccc1)NC(NC(=S)Nc1cccc2cccnc12)C(Cl)(Cl)Cl (centres unmarked) [Salubrinal]
protection in SOD1^G93A mice (SOD1^G93A mice): protective

COc1cc(CNC(=O)CCCC/C=C/C(C)C)ccc1O [capsaicin]
Preferential activity on ALS motor neurons [1]: confirmed

C/C=C(/C)C(=O)O[C@H]1C(C)=C2[C@H]([C@@H]1OC(=O)CCCCCCC)[C@@](C)(OC(C)=O)C[C@H](OC(=O)CCC)[C@@]1(O)[C@H]2OC(=O)[C@@]1(C)O [thapsigargin]
death of ALS motor neurons relative to controls ([1]; concentrations on the order of 1 nM): 2- to 4 fold | effect on respiratory rhythm [2]: do not affect respiratory rhythm
